Experimental data published in patent publication US20230322717A1, “SOLID FORM OF PYRAZINE SUBSTITUTED NICOTINAMIDE, AND PREPARATION AND USE THEREOF” (Shenzhen TargetRx, Inc., priority 2020, published 2023).
Values after ≈ are worked out from the molar mass of the structure shown.

Assays:
Format in all cases: physicochemical
[1] = Dynamic moisture adsorption and desorption analysis (DVS); details: for crystal form after DVS test (XRPD): before and after DVS test; for hygroscopicity (DVS): moisture range 0% to 90%
Experimental: The instrument model used for dynamic moisture adsorption and desorption analysis was IGA Sorp (Hidentity Isochema). The samples were measured in a gradient mode with a moisture range of 0% to 90%, wherein the humidity increment of each gradient was 10%.

[2] = Stability study of the crystal form VI of compound A (high temperature, high humidity, light)
[3] = Stability study of the crystal form I of compound A and the crystal form I of compound A p-toluenesulfonate (HPLC, XRPD)
Experimental: A certain amount of samples of the crystal form I of compound A and the crystal form I of compound A p-toluenesulfonate (Batch No.: PTSA-A1) were placed in a stability test chamber, and kept at 40° C./75%RH and 60° C. for 7 days, respectively. The samples were tested by HPLC and XRPD at various time points.

[4] = Solubility study in SGF, FaSSIF and FeSSIF (HPLC of filtrate, XRPD of solid); details: 37° C.; for Crystal form: XRPD of solid
Experimental: The solubilities of the crystal form I of compound A and the crystal form I of compound A p-toluenesulfonate in SGF (simulated gastric fluid), FaSSIF (fasted state simulated intestinal fluid) and FeSSIF (fed state simulated intestinal fluid) were studied.
The solubilities of samples in SGF, FaSSIF and FeSSIF at 37° C. for 24 hours were determined. 40 mg of the sample was placed in a sample bottle, and 1.5 mL of solvent was added. The mixture was mixed well, and shaken on a shaker at 200 rpm for 24 hours. The suspension was filtered at 0.5, 2 and 24 hours. The filtrate was analyzed by HPLC, and the solid was tested by XRPD.

Br.O=C(Nc1ccc(OC(F)(F)Cl)cc1)c1cnc(N2CC[C@@H](F)C2)c(-c2cnccn2)c1 [(R)-N-(4-(chlorodifluoromethoxy)phenyl)-6-(3-fluoropyrrolidin-1-yl)-5-(pyrazin-2-yl)nicotinamide hydrobromide]
water absorption ([1]; 0-80%RH): about 0.67%
crystal form after DVS test (XRPD) [1]: not changed
hygroscopicity (DVS) [1]: slightly hygroscopic

CS(=O)(=O)O.O=C(Nc1ccc(OC(F)(F)Cl)cc1)c1cnc(N2CC[C@@H](F)C2)c(-c2cnccn2)c1 [crystal form I of compound A mesylate, (R)-N-(4-(chlorodifluoromethoxy)phenyl)-6-(3-fluoropyrrolidin-1-yl)-5-(pyrazin-2-yl)nicotinamide mesylate]
water absorption ([1]; 0-80%RH): about 3.6%
water absorption ([1]; 0-90%RH): about 40.3%
crystal form after DVS test (XRPD) [1]: not changed
hygroscopicity (DVS) [1]: hygroscopic

O=C(Nc1ccc(OC(F)(F)Cl)cc1)c1cnc(N2CC[C@@H](F)C2)c(-c2cnccn2)c1 [the crystal form VI of compound A]
Appearance ([2]; 0 day): Off-white powder
Content ([2]; 0 day): 99.40%
Crystal form ([2]; 0 day): The crystal form VI
Impurity content ([2]; 0 day): 0.87%
Appearance ([2]; 25° C./92.5%RH, 10 days): Off-white powder
Content ([2]; 25° C./92.5%RH, 10 days): 98.40%
Crystal form ([2]; 25° C./92.5%RH, 10 days): The crystal form VI
Hygroscopic weight gain ([2]; 25° C./92.5%RH, 10 days): 0.34%
Impurity content ([2]; 25° C./92.5%RH, 10 days): 0.80%
Appearance ([2]; 25° C./92.5%RH, 30 days): Off-white powder
Content ([2]; 25° C./92.5%RH, 30 days): 98.80%
Crystal form ([2]; 25° C./92.5%RH, 30 days): The crystal form VI
Hygroscopic weight gain ([2]; 25° C./92.5%RH, 30 days): 2.72%
Impurity content ([2]; 25° C./92.5%RH, 30 days): 0.85%
Appearance ([2]; 40° C./75%RH, 10 days): Off-white powder
Content ([2]; 40° C./75%RH, 10 days): 98.40%
Crystal form ([2]; 40° C./75%RH, 10 days): The crystal form VI
Hygroscopic weight gain ([2]; 40° C./75%RH, 10 days): 1.26%
Impurity content ([2]; 40° C./75%RH, 10 days): 0.79%
Appearance ([2]; 40° C./75%RH, 30 days): Off-white powder
Content ([2]; 40° C./75%RH, 30 days): 101.40%
Crystal form ([2]; 40° C./75%RH, 30 days): The crystal form VI
Hygroscopic weight gain ([2]; 40° C./75%RH, 30 days): 1.26%
Impurity content ([2]; 40° C./75%RH, 30 days): 0.80%
Appearance ([2]; 60° C., 10 days): Off-white powder
Content ([2]; 60° C., 10 days): 99.90%
Crystal form ([2]; 60° C., 10 days): The crystal form VI
Impurity content ([2]; 60° C., 10 days): 0.81%
Appearance ([2]; 60° C., 30 days): Off-white powder
Content ([2]; 60° C., 30 days): 96.90%
Crystal form ([2]; 60° C., 30 days): The crystal form VI
Impurity content ([2]; 60° C., 30 days): 0.84%
Appearance ([2]; Light, 10 days): Off-white powder
Content ([2]; Light, 10 days): 99.70%
Crystal form ([2]; Light, 10 days): The crystal form VI
Impurity content ([2]; Light, 10 days): 0.85%

O=C(Nc1ccc(OC(F)(F)Cl)cc1)c1cnc(N2CC[C@@H](F)C2)c(-c2cnccn2)c1 [The crystal form I of compound A]
Purity ([3]; 40° C./75% RH, Day 0, HPLC): 96.1%
Purity ([3]; 40° C./75% RH, Day 3, HPLC): 97.1%
Crystal form ([3]; 40° C./75% RH, Day 3, XRPD): Initial crystal form
Purity ([3]; 40° C./75% RH, Day 7, HPLC): 97.1%
Crystal form ([3]; 40° C./75% RH, Day 7, XRPD): Initial crystal form
Purity ([3]; 60° C., Day 0, HPLC): 96.1%
Purity ([3]; 60° C., Day 3, HPLC): 96.7%
Crystal form ([3]; 60° C., Day 3, XRPD): Initial crystal form
Purity ([3]; 60° C., Day 7, HPLC): 97.1%
Crystal form ([3]; 60° C., Day 7, XRPD): Initial crystal form
Solubility ([4]; FaSSIF, 0.5 h): 4.2 µg/mL (≈ 9.05 µM)
pH ([4]; FaSSIF, 0.5 h): 6.62
Crystal form ([4]; FaSSIF, 0.5 h): Initial crystal form
Solubility ([4]; FaSSIF, 2 h): 4.8 µg/mL (≈ 10.3 µM)
pH ([4]; FaSSIF, 2 h): 6.63
Crystal form ([4]; FaSSIF, 2 h): Changed
Solubility ([4]; FaSSIF, 24 h): 4.3 µg/mL (≈ 9.27 µM)
pH ([4]; FaSSIF, 24 h): 6.63
Crystal form ([4]; FaSSIF, 24 h): Changed
Solubility ([4]; FeSSIF, 0.5 h): 220 µg/mL (≈ 474 µM)
pH ([4]; FeSSIF, 0.5 h): 5.04
Crystal form ([4]; FeSSIF, 0.5 h): Initial crystal form
Solubility ([4]; FeSSIF, 2 h): 180 µg/mL (≈ 388 µM)
pH ([4]; FeSSIF, 2 h): 5.05
Crystal form ([4]; FeSSIF, 2 h): Changed
Solubility ([4]; FeSSIF, 24 h): 57 µg/mL (≈ 123 µM)
pH ([4]; FeSSIF, 24 h): 5.02
Crystal form ([4]; FeSSIF, 24 h): Changed
Solubility ([4]; SGF, 0.5 h): 120 µg/mL (≈ 259 µM)
pH ([4]; SGF, 0.5 h): 1.24
Crystal form ([4]; SGF, 0.5 h): Initial Crystal form
Solubility ([4]; SGF, 2 h): 63 µg/mL (≈ 136 µM)
pH ([4]; SGF, 2 h): 1.24
Crystal form ([4]; SGF, 2 h): Changed
Solubility ([4]; SGF, 24 h): 46 µg/mL (≈ 99.2 µM)
pH ([4]; SGF, 24 h): 1.23
Crystal form ([4]; SGF, 24 h): Changed

Cc1ccc(S(=O)(=O)O)cc1.O=C(Nc1ccc(OC(F)(F)Cl)cc1)c1cnc(N2CC[C@@H](F)C2)c(-c2cnccn2)c1
Purity ([3]; 40° C./75% RH, Day 0, HPLC): 97.9%
Purity ([3]; 40° C./75% RH, Day 3, HPLC): 97.9%
Crystal form ([3]; 40° C./75% RH, Day 3, XRPD): Initial crystal form
Purity ([3]; 40° C./75% RH, Day 7, HPLC): 97.9%
Crystal form ([3]; 40° C./75% RH, Day 7, XRPD): Initial crystal form
Purity ([3]; 60° C., Day 0, HPLC): 97.9%
Purity ([3]; 60° C., Day 3, HPLC): 97.9%
Crystal form ([3]; 60° C., Day 3, XRPD): Initial crystal form
Purity ([3]; 60° C., Day 7, HPLC): 97.9%
Crystal form ([3]; 60° C., Day 7, XRPD): Initial crystal form
Solubility ([4]; FaSSIF, 0.5 h): 4.5 µg/mL
pH ([4]; FaSSIF, 0.5 h): 6.38
Crystal form ([4]; FaSSIF, 0.5 h): Changed
Solubility ([4]; FaSSIF, 2 h): 3.7 µg/mL
pH ([4]; FaSSIF, 2 h): 3.48
Crystal form ([4]; FaSSIF, 2 h): Changed
Solubility ([4]; FaSSIF, 24 h): 16 µg/mL
pH ([4]; FaSSIF, 24 h): 1.91
Crystal form ([4]; FaSSIF, 24 h): Changed
Solubility ([4]; FeSSIF, 0.5 h): 100 µg/mL
pH ([4]; FeSSIF, 0.5 h): 4.53
Crystal form ([4]; FeSSIF, 0.5 h): Changed
Solubility ([4]; FeSSIF, 2 h): 93 µg/mL
pH ([4]; FeSSIF, 2 h): 4.51
Crystal form ([4]; FeSSIF, 2 h): Changed
Solubility ([4]; FeSSIF, 24 h): 180 µg/mL
pH ([4]; FeSSIF, 24 h): 4.50
Crystal form ([4]; FeSSIF, 24 h): Changed
Solubility ([4]; SGF, 0.5 h): 97 µg/mL
pH ([4]; SGF, 0.5 h): 1.23
Crystal form ([4]; SGF, 0.5 h): Initial crystal form
Solubility ([4]; SGF, 2 h): 67 µg/mL
pH ([4]; SGF, 2 h): 1.19
Crystal form ([4]; SGF, 2 h): Initial crystal form
Solubility ([4]; SGF, 24 h): 45 µg/mL
pH ([4]; SGF, 24 h): 1.18
Crystal form ([4]; SGF, 24 h): Changed
